Measured values as given in the supplement of paper PMC10307832.

Tests used:
Test in all cases: relative viability (nuclei count vs DMSO), 5 days (fraction); higher = more cells survive
201T = test system: 201T
Summary of the method: (§1)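 Medians of duplicate plates are given as relative viability. That measure is the nuclei count in treated wells divided by the count in vehicle wells. Counts were taken on 4× images of lung cancer cell lines in 1536-well plates, 5 days after pin-tool dosing the day after seeding with one drug alone or a fixed anchor-drug dose plus five library-drug doses (not always all listed) in √10 steps.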

COR-L23 = test system: COR-L23
Summary of the method: as §1

EPLC-272H = test system: EPLC-272H
Summary of the method: as §1

H3255 = test system: H3255
Summary of the method: as §1

HCC-44 = test system: HCC-44
Summary of the method: as §1

LOU-NH91 = test system: LOU-NH91
Summary of the method: as §1

NCI-H1563 = test system: NCI-H1563
Summary of the method: as §1

NCI-H1650 = test system: NCI-H1650
Summary of the method: as §1

NCI-H1734 = test system: NCI-H1734
Summary of the method: as §1

NCI-H1793 = test system: NCI-H1793
Summary of the method: as §1

NCI-H1993 = test system: NCI-H1993
Summary of the method: as §1

NCI-H2023 = test system: NCI-H2023
Summary of the method: as §1

For C=C1C(=O)O[C@@H](CCCCCCCC)[C@@H]1C(=O)O [C-75] + COc1cccc2cc(-c3nc([C@H]4CC[C@H](C(=O)O)CC4)n4ncnc(N)c34)[nH]c12 [OSI-027] (partner 0.5 µM), the relative viability (201T; first compound 0.08 µM) was 0.734, the relative viability (201T; first compound 0.253 µM) was 0.866 and the relative viability (201T; first compound 0.8 µM) was 0.698. For the same compound, the relative viability (201T; first compound 8 µM) was 0.734, the relative viability (COR-L23; first compound 0.08 µM) was 0.74 and the relative viability (COR-L23; first compound 0.253 µM) was 0.886. The relative viability (COR-L23; first compound 0.8 µM) was 0.767, the relative viability (COR-L23; first compound 2.53 µM) was 0.676 and the relative viability (COR-L23; first compound 8 µM) was 0.701. It also gave a relative viability (EPLC-272H; first compound 0.08 µM) of 0.271, a relative viability (EPLC-272H; first compound 0.253 µM) of 0.302 and a relative viability (EPLC-272H; first compound 0.8 µM) of 0.278. The relative viability (EPLC-272H; first compound 2.53 µM) was 0.227, the relative viability (EPLC-272H; first compound 8 µM) was 0.235 and the relative viability (H3255; first compound 0.08 µM) was 0.589. For the same compound, the relative viability (H3255; first compound 0.253 µM) was 0.7, the relative viability (H3255; first compound 0.8 µM) was 0.481 and the relative viability (H3255; first compound 2.53 µM) was 0.562. The relative viability (H3255; first compound 8 µM) was 0.633, the relative viability (HCC-44; first compound 0.08 µM) was 0.675 and the relative viability (HCC-44; first compound 0.253 µM) was 0.428. The relative viability (HCC-44; first compound 0.8 µM) was 0.463, the relative viability (HCC-44; first compound 2.53 µM) was 0.353 and the relative viability (HCC-44; first compound 8 µM) was 0.404. The relative viability (LOU-NH91; first compound 0.08 µM) was 0.725, the relative viability (LOU-NH91; first compound 0.253 µM) was 0.622 and the relative viability (LOU-NH91; first compound 0.8 µM) was 0.68. It also gave a relative viability (LOU-NH91; first compound 2.53 µM) of 0.656, a relative viability (LOU-NH91; first compound 8 µM) of 0.781 and a relative viability (NCI-H1563; first compound 0.08 µM) of 0.806. For the same compound, the relative viability (NCI-H1563; first compound 0.253 µM) was 0.856, the relative viability (NCI-H1563; first compound 0.8 µM) was 0.791 and the relative viability (NCI-H1563; first compound 2.53 µM) was 0.718. It also gave a relative viability (NCI-H1563; first compound 8 µM) of 0.79, a relative viability (NCI-H1650; first compound 0.08 µM) of 0.743 and a relative viability (NCI-H1650; first compound 0.253 µM) of 0.856. The relative viability (NCI-H1650; first compound 2.53 µM) was 0.442, the relative viability (NCI-H1650; first compound 8 µM) was 0.851 and the relative viability (NCI-H1734; first compound 0.08 µM) was 0.593. For the same compound, the relative viability (NCI-H1734; first compound 0.253 µM) was 0.621, the relative viability (NCI-H1734; first compound 0.8 µM) was 0.481 and the relative viability (NCI-H1734; first compound 2.53 µM) was 0.323. It also gave a relative viability (NCI-H1734; first compound 8 µM) of 0.455, a relative viability (NCI-H1793; first compound 0.08 µM) of 0.337 and a relative viability (NCI-H1793; first compound 0.253 µM) of 0.284. The relative viability (NCI-H1793; first compound 0.8 µM) was 0.241, the relative viability (NCI-H1793; first compound 2.53 µM) was 0.224 and the relative viability (NCI-H1793; first compound 8 µM) was 0.342. The relative viability (NCI-H1993; first compound 0.08 µM) was 0.558, the relative viability (NCI-H1993; first compound 0.253 µM) was 0.61 and the relative viability (NCI-H1993; first compound 0.8 µM) was 0.491. The relative viability (NCI-H1993; first compound 2.53 µM) was 0.539, the relative viability (NCI-H1993; first compound 8 µM) was 0.589 and the relative viability (NCI-H2023; first compound 0.08 µM) was 0.455. For the same compound, the relative viability (NCI-H2023; first compound 0.253 µM) was 0.558.
